Results on four compounds are retold here after patent publication US12053527B2, “Compositions with permeation enhancers for drug delivery” (priority 2015, dated 2024).

A short description of data set [1]: Linear oscillatory shear rheology (gelation temperature, storage and loss moduli). The following applies: for effect on plateau values of G′ and G″ / mechanical properties and gelation temperature: CPE added separately to Cip-18% [P407-PBP]; for reduction of gelation temperature: CPE added separately to Cip-18% [P407-PBP] (1% SDS, 2% limonene or 0.5% bupivacaine).

The test system of data set [2] is non-typable H. influenzae (NTHi). The following applies: cited from earlier work.
The test system of data set [3] is S. pneumoniae. Particulars: cited from earlier work.
Data set [4] in a line: Pharmacokinetics in the OM model: ciprofloxacin in middle ear fluid and plasma. Format: in vivo, chinchilla. Particulars: animals treated with the standard formulation.
Data set [5] is described as follows: Ex vivo permeation of ciprofloxacin across the tympanic membrane.
Setting [6] is: 2% limonene added to Cip-18% [P407-PBP].

SMILES strings stand for the structures.

Turning to `CCCCN1CCCCC1C(=O)Nc1c(C)cccc1C` (centres unmarked) [Bupivacaine], in data set [1], the “effect on plateau values of G′ and G″ / mechanical properties and gelation temperature” value is recorded as “minimal effects”.

Regarding `CCCCCCCCCCCCOS(=O)(=O)[O-].[Na+]` [SDS, Sodium dodecyl sulfate], in data set [1], the “effect on plateau values of G′ and G″ / mechanical properties and gelation temperature” value is “did not affect”; the “reduction of gelation temperature” value is around 1.5 °C.

With `O=C(O)c1cn(C2CC2)c2cc(N3CCNCC3)c(F)cc2c1=O` [ciprofloxacin], in data set [2], the “MIC for non-typable H. influenzae (NTHi)” value was below 0.1 to 0.5 µg/mL, the “minimum inhibitory concentration (MIC) of NTHi” value is 0.1 to 0.5 µg/mL and the “minimum inhibitory concentration for H. influenza middle ear infections” value is “about 4 μg/mL”. Moreover, in data set [3], the “MIC for S. pneumoniae” value was 0.5 to 4 µg/mL and the “minimum inhibitory concentration for S. pneumoniae middle ear infections” value is on record as “about 4 μg/mL”. For the same compound, the “ciprofloxacin in the blood” value in data set [4] is on record as “undetectable”.

Regarding `C=C(C)[C@H]1CC=C(C)CC1` [limonene], in data set [5] (48 hours, limonene added), the “concentration-dependent increase in ciprofloxacin transfer” value was “two-to-three-fold”. Further, in data set [5] (limonene added to ciprofloxacin), the “time at which ciprofloxacin was detected in the receiving buffer” value fell in the range of 1 to 2 h. In data set [1] (setting [6]), the “decrease of G″” value is given as 4.1 kPa and the “increase of G′” value turned out to be 10.5 kPa. Further, the “reduction of gelation temperature” value in data set [1] came out at 14 °C.
